Source: PubChem BioAssay AID1259407 (Chemical Carcinogenesis Research Information System (CCRIS), 2018)
The source made the active and inactive calls. No rule for the calls is given here.

System: CCRIS mutagenicity, Ames/micronucleus/aberration tests
Test: CCRIS mutagenicity studies
[1] = Test System: AMES SALMONELLA TYPHIMURIUM, Strain/Indicator: TA98, Metabolic Activation: NONE, Method: STANDARD PLATE
[2] = Test System: AMES SALMONELLA TYPHIMURIUM, Strain/Indicator: TA98, Metabolic Activation: RAT, LIVER, S-9, AROCLOR 1254, Method: STANDARD PLATE
[3] = Test System: AMES SALMONELLA TYPHIMURIUM, Strain/Indicator: TA100, Metabolic Activation: NONE, Method: STANDARD PLATE
[4] = Test System: AMES SALMONELLA TYPHIMURIUM, Strain/Indicator: TA100, Metabolic Activation: RAT, LIVER, S-9, AROCLOR 1254, Method: STANDARD PLATE

In the case of `OC[C@H](Cc1cccc(O)c1)[C@H](CO)Cc1cccc(O)c1`, the mutagenic call (Test System: CHINESE HAMSTER V79 CELLS, Strain/Indicator: V79 CELLS (HPRT)/6-THIOGUANINE, Metabolic Activation: NONE, Method: SUSPENSION/PLATE) was “inactive; negative” and the mutagenic call (Test System: CHINESE HAMSTER V-79, Strain/Indicator: V-79 (HPRT)/6-THIOGUANINE, Metabolic Activation: NONE) was “inactive; negative”.
For `CC(=O)OCC1=CO[C@@H](OC(=O)CC(C)C)[C@H]2C1=C[C@H](OC(=O)CC(C)C)[C@]21CO1`, the mutagenic call [1] was “inactive; negative”, the mutagenic call [2] was “inactive; negative” and the mutagenic call [3] was “inactive; negative”. The mutagenic call [4] was “active; positive”, the mutagenic call (Test System: AMES SALMONELLA TYPHIMURIUM, Strain/Indicator: TA1535, Metabolic Activation: NONE, Method: STANDARD PLATE) was “inactive; negative” and the mutagenic call (Test System: AMES SALMONELLA TYPHIMURIUM, Strain/Indicator: TA1535, Metabolic Activation: RAT, LIVER, S-9, AROCLOR 1254, Method: STANDARD PLATE) was “inactive; negative”. The mutagenic call (Test System: AMES SALMONELLA TYPHIMURIUM, Strain/Indicator: TA1537, Metabolic Activation: NONE, Method: STANDARD PLATE) was “inactive; negative”, the mutagenic call (Test System: AMES SALMONELLA TYPHIMURIUM, Strain/Indicator: TA1537, Metabolic Activation: RAT, LIVER, S-9, AROCLOR 1254, Method: STANDARD PLATE) was “inactive; negative” and the mutagenic call (Test System: E. COLI, Strain/Indicator: WP2, Metabolic Activation: NONE, Method: STANDARD PLATE) was “inactive; negative”. For the same molecule, the mutagenic call (Test System: E. COLI, Strain/Indicator: WP2, Metabolic Activation: RAT, LIVER, S-9, AROCLOR 1254, Method: STANDARD PLATE) was “inactive; negative”, the mutagenic call (Test System: E. COLI, Strain/Indicator: WP2 UVRA, Metabolic Activation: NONE, Method: STANDARD PLATE) was “active; positive” and the mutagenic call (Test System: E. COLI, Strain/Indicator: WP2 UVRA, Metabolic Activation: RAT, LIVER, S-9, AROCLOR 1254, Method: STANDARD PLATE) was “inactive; negative”.
With `CCC(CCC(C)O)COC(=O)c1ccccc1C(=O)O` (stereo unspecified) the mutagenic call (Test System: AMES SALMONELLA TYPHIMURIUM, Strain/Indicator: TA97, Metabolic Activation: NONE, Method: STANDARD PLATE) was “inactive; negative”, the mutagenic call (Test System: AMES SALMONELLA TYPHIMURIUM, Strain/Indicator: TA97, Metabolic Activation: RAT, LIVER, S-9, AROCLOR 1254, Method: STANDARD PLATE) was “inactive; negative” and the mutagenic call (Test System: AMES SALMONELLA TYPHIMURIUM, Strain/Indicator: TA97, Metabolic Activation: RAT, LIVER, S-9, DI(2-ETHYLHEXYL)PHTHALATE, Method: STANDARD PLATE) was “inactive; negative”. The mutagenic call [1] was “inactive; negative”, the mutagenic call [2] was “inactive; negative” and the mutagenic call (Test System: AMES SALMONELLA TYPHIMURIUM, Strain/Indicator: TA98, Metabolic Activation: RAT, LIVER, S-9, DI(2-ETHYLHEXYL)PHTHALATE, Method: STANDARD PLATE) was “inactive; negative”. For the same molecule, the mutagenic call [3] was “inactive; negative”, the mutagenic call [4] was “inactive; negative” and the mutagenic call (Test System: AMES SALMONELLA TYPHIMURIUM, Strain/Indicator: TA100, Metabolic Activation: RAT, LIVER, S-9, DI(2-ETHYLEXYL)PHTHALATE, Method: STANDARD PLATE) was “inactive; negative”. For the same molecule, the mutagenic call (Test System: AMES SALMONELLA TYPHIMURIUM, Strain/Indicator: TA102, Metabolic Activation: NONE, Method: STANDARD PLATE) was “inactive; negative”, the mutagenic call (Test System: AMES SALMONELLA TYPHIMURIUM, Strain/Indicator: TA102, Metabolic Activation: RAT, LIVER, S-9, AROCLOR 1254, Method: STANDARD PLATE) was “inactive; negative” and the mutagenic call (Test System: AMES SALMONELLA TYPHIMURIUM, Strain/Indicator: TA102, Metabolic Activation: RAT, LIVER, S-9, DI(2-ETHYLHEXYL)PHTHALATE, Method: STANDARD PLATE) was “inactive; negative”.
